This passage reports inhibition results from ChEMBL document CHEMBL4334501, “A drug repurposing screening reveals a novel epigenetic activity of hydroxychloroquine” (Eur J Med Chem, 2019).

Assay [1] addresses Polycomb protein EED (Homo sapiens) (UniProt O75530). The assay can be described thus: Inhibition of EED subunit of PRC2 complex in human MM1S cells assessed as reduction in H3K27me3 expression after 24 hrs by Western blot analysis. It is filed as cell-based. (In general: In western blotting, separated proteins are transferred to a membrane and probed.)
For assay [2] the target is unchanged. Put plainly: Inhibition of HA-tagged human EED subunit of PRC2 complex expressed in human MM1S cells assessed as reduction in transfected EED cDNA vector-induced H3K27me3 overexpression at 10 uM after 24 hrs by Western blot analysis. It is filed as cell-based.

Active and inactive are the calls of the source. The calls are words filed in the database; no cut-off is given here.

Sequence of Polycomb protein EED (Homo sapiens) (O75530 2-441 limits assumed): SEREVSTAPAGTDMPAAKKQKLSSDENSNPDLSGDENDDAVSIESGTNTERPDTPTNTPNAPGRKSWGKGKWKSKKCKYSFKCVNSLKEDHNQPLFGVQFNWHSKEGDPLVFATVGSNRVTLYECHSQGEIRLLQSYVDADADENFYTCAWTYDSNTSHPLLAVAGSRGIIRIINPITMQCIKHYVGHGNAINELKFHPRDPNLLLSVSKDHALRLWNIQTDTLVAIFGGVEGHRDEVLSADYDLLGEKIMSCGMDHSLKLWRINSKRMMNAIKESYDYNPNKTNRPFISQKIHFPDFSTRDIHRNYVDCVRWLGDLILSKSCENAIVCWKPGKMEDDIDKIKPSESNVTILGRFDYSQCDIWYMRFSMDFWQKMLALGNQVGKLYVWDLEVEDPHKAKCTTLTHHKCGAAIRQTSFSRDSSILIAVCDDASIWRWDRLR

In the case of `CCN(CCO)CCCC(C)Nc1ccnc2cc(Cl)ccc12` (configuration not stated), in assay [1], the inhibition result is “Dose-dependent effect”. For the same compound, in assay [2], the inhibition entry is “Active”.
